In brackets after ≈: the same amount, converted by molar mass.
tested on: Mus musculus; assay: Antiallodynic activity in po dosed mouse partial sciatic nerve ligation model; type: functional; conditions: not given

| Structure (SMILES) | MED |
| --- | --- |
| O=C(CCc1ccccc1)N[C@H]1CC[C@](O)(c2ccc(O)cn2)CC1 | 10 mg/kg |

tested on: not listed separately; assay: Bioavailability in mouse; type: ADME, organism-based; conditions: in vivo

| bioavailability | Structure (SMILES) |
| --- | --- |
| 27% | O=C(CCc1ccccc1)N[C@H]1CC[C@](O)(c2ccc(O)cn2)CC1 |

target: Glutamate receptor ionotropic, NMDA 2B (Rattus norvegicus, UniProt Q00960); assay: Displacement of [3H]CP-101606 from NR2B in rat forebrain P2 membrane; type: cell membranes, Brain; conditions: not given
Sequence (Q00960 whole entry): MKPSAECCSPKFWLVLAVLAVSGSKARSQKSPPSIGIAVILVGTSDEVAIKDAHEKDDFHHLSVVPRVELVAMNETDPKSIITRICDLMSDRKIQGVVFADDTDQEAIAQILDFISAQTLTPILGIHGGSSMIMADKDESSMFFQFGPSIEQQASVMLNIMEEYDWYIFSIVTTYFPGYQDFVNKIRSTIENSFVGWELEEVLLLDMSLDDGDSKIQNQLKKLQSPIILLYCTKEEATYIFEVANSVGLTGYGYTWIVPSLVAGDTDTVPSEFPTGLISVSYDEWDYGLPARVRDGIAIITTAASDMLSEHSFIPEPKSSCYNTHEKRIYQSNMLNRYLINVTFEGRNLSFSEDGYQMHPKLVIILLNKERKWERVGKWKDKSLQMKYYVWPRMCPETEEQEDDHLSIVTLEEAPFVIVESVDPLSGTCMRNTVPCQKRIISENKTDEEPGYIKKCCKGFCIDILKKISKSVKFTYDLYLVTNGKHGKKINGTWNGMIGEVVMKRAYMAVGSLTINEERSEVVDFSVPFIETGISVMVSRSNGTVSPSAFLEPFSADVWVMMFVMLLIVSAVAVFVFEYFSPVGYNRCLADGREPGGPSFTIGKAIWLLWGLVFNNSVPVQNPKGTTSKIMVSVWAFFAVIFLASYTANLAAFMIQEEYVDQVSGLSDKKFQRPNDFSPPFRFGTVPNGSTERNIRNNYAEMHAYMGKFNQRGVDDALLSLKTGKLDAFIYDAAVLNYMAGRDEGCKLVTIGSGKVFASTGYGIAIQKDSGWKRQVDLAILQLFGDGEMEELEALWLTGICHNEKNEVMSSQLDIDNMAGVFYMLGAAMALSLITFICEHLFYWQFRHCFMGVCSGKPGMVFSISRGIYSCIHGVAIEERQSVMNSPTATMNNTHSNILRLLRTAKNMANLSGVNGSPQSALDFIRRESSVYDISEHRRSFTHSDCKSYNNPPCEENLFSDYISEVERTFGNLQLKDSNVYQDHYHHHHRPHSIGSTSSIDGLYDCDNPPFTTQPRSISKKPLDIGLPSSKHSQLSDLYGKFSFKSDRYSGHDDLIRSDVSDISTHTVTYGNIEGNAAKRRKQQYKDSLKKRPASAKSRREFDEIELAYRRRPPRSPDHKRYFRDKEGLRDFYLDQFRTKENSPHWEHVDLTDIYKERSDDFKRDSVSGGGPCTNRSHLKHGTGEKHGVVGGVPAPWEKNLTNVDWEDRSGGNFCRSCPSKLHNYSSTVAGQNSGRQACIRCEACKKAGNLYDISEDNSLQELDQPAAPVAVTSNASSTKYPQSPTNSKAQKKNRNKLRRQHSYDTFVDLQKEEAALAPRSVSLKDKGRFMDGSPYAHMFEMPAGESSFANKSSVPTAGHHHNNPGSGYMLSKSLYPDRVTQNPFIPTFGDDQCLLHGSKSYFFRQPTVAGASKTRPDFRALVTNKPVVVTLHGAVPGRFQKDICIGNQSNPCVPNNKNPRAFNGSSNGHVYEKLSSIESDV

| IC50 | Structure (SMILES) |
| --- | --- |
| 19 nM | O=C(CCc1ccccc1)N[C@H]1CC[C@](O)(c2ccc(O)cc2)CC1 |
| 10 nM | O=C(CCc1ccccc1)N[C@H]1CC[C@](O)(c2ccc(O)cn2)CC1 |
| 25 nM | Cc1cc(O)ccc1[C@]1(O)CC[C@@H](NC(=O)CCc2ccccc2)CC1 |
| 13 nM | O=C(CCc1ccccc1)N[C@H]1CC[C@](O)(c2ccc(O)c(F)c2)CC1 |
| 30 nM | O=C(CCc1ccccc1)N[C@H]1CC[C@H](c2ccc(O)cc2)CC1 |
| 722 nM | Cc1cc(O)ccc1[C@H]1CC[C@H](NC(=O)CCc2ccccc2)CC1 |
| 4960 nM | O=C(CCc1ccccc1)N[C@H]1CC[C@](O)(c2ccc3nc[nH]c3c2)CC1 |
| 189 nM | Cc1cc([C@]2(O)CC[C@@H](NC(=O)CCc3ccccc3)CC2)ccc1O |
| 85 nM | O=C(CCc1ccccc1)N[C@H]1CC[C@](O)(c2c[nH]c3nc(=O)oc-3c2)CC1 |
| 116 nM | Cc1cc([C@]2(O)CC[C@@H](NC(=O)CCc3ccccc3)CC2)ncc1O |
| 2440 nM | O=C(CCc1ccccc1)N[C@H]1CC[C@](O)(c2cn[nH]c2)CC1 |

More lines, now with the values behind:

| Structure (SMILES) | IC50 |
| --- | --- |
| Cc1cc([C@H]2CC[C@H](NC(=O)CCc3ccccc3)CC2)ccc1O | > 5000 nM |
| Nc1ccc([C@]2(O)CC[C@@H](NC(=O)CCc3ccccc3)CC2)cn1 | > 5000 nM |
| O=C(CCc1ccccn1)N[C@H]1CC[C@H](c2ccc(O)cc2)CC1 | 856 nM |
| CN(C)C(Cc1ccccc1)C(=O)N[C@H]1CC[C@H](c2ccc(O)cc2)CC1 (stereo partly drawn) | > 1000 nM |
| Cn1c(CCC(=O)N[C@H]2CC[C@H](c3ccc(O)cc3)CC2)nc2ccccc21 | > 1000 nM |
| O=C(CCc1ccccc1)N[C@H]1CC[C@](O)(c2c[nH]cn2)CC1 | > 5000 nM |
| O=C(CCc1cccnc1)N[C@H]1CC[C@H](c2ccc(O)cc2)CC1 | > 1000 nM |
| CS(=O)(=O)Nc1ccc([C@]2(O)CC[C@@H](NC(=O)CCc3ccccc3)CC2)cn1 | > 5000 nM |
| O=C(CCc1ccccc1)N[C@H]1CC[C@H](c2ccc(O)c(F)c2)CC1 | 59 nM |
| Cc1cnc(CCC(=O)N[C@H]2CC[C@H](c3ccc(O)cc3)CC2)s1 | 96 nM |
| O=C(N[C@H]1CC[C@H](c2ccc(O)cc2)CC1)C1Cc2ccccc2CN1 (stereo partly drawn) | > 1000 nM |

target: Voltage-gated inwardly rectifying potassium channel KCNH2 (Homo sapiens, UniProt Q12809); assay: Displacement of [3H]dofetilide from human HERG expressed in HEK293 cells; type: cell-based; conditions: not given
Sequence (Q12809 whole entry): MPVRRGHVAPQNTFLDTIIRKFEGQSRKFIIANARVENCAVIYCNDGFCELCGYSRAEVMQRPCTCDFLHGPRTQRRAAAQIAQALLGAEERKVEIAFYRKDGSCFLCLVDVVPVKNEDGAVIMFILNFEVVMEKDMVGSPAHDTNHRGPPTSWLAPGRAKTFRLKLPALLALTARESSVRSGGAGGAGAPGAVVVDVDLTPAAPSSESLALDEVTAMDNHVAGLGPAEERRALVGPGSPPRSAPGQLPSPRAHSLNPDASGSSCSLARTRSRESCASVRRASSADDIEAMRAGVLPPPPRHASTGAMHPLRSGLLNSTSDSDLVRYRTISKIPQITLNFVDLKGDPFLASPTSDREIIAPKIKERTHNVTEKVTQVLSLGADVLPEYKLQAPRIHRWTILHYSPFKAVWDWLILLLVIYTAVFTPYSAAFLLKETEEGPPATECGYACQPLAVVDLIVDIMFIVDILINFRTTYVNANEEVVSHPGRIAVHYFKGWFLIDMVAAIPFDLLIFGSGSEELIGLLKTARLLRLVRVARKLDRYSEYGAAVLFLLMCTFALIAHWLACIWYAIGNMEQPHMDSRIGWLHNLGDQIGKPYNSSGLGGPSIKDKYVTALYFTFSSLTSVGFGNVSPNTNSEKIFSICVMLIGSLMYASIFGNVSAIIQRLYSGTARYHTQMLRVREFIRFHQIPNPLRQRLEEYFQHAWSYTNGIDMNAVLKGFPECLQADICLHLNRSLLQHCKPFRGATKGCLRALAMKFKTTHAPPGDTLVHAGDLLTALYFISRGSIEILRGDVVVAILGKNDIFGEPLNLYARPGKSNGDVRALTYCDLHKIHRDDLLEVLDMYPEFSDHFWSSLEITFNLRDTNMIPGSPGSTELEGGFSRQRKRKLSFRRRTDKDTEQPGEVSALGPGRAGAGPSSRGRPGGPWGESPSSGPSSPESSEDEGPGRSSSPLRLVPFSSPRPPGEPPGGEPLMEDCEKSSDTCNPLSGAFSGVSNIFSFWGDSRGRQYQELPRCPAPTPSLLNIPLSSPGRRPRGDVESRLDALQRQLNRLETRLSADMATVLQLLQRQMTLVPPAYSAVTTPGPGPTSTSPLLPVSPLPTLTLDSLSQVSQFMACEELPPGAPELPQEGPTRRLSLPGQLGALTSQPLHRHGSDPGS

| Structure (SMILES) | IC50 |
| --- | --- |
| O=C(CCc1ccccc1)N[C@H]1CC[C@](O)(c2ccc(O)cc2)CC1 | > 30000 nM |
| O=C(CCc1ccccc1)N[C@H]1CC[C@](O)(c2ccc(O)cn2)CC1 | > 30000 nM |
| C[C@@H]([C@@H](O)c1ccc(O)cc1)N1CCC(Cc2ccccc2)CC1 [(S)-IFENPRODIL] | < 1000 nM |
| O=C(CCc1ccccn1)N[C@H]1CC[C@H](c2ccc(O)cc2)CC1 | > 30000 nM |
| O=C1CC(Cc2ccccc2)CCN1CC(O)c1ccc(O)cc1 (stereo not drawn) | > 30000 nM |
| O=C1CCc2cc([C@@H](O)CN3CCC(O)(c4cccc(F)c4)CC3)ccc2N1 | 1100 nM |
| Cc1cnc(CCC(=O)N[C@H]2CC[C@H](c3ccc(O)cc3)CC2)s1 | > 10000 nM |
| O=C(N[C@H]1CC[C@H](c2ccc(O)cc2)CC1)C1Cc2ccccc2CN1 (stereo partly drawn) | > 30000 nM |

same assay, conditions: hek293

| Structure (SMILES) | IC50 |
| --- | --- |
| Cc1cc(O)ccc1[C@]1(O)CC[C@@H](NC(=O)CCc2ccccc2)CC1 | > 10000 nM |
| Cc1cc([C@]2(O)CC[C@@H](NC(=O)CCc3ccccc3)CC2)ccc1O | > 10000 nM |
| O=C(CCc1ccccc1)N[C@H]1CC[C@H](c2ccc(O)c(F)c2)CC1 | > 10000 nM |

tested on: not listed separately; assay: Metabolic stability assessed Half life in human liver microsomes; type: ADME, Microsome; conditions: not given

| half-life | Structure (SMILES) |
| --- | --- |
| > 1 h | O=C(CCc1ccccc1)N[C@H]1CC[C@](O)(c2ccc(O)cn2)CC1 |

tested on: not listed separately; assay: Solubility at pH 6.5; type: physicochemical; conditions: buffer

| solubility | Structure (SMILES) |
| --- | --- |
| 20 µg/mL (≈ 58.9 µM) | O=C(CCc1ccccc1)N[C@H]1CC[C@](O)(c2ccc(O)cc2)CC1 |
| 130 µg/mL (≈ 382 µM) | O=C(CCc1ccccc1)N[C@H]1CC[C@](O)(c2ccc(O)cn2)CC1 |
| 17 µg/mL (≈ 47.6 µM) | O=C(CCc1ccccc1)N[C@H]1CC[C@](O)(c2ccc(O)c(F)c2)CC1 |
| < 5 µg/mL | O=C(CCc1ccccc1)N[C@H]1CC[C@H](c2ccc(O)cc2)CC1 |
| < 5 µg/mL | Cc1cc([C@]2(O)CC[C@@H](NC(=O)CCc3ccccc3)CC2)ccc1O |

| Structure (SMILES) | solubility |
| --- | --- |
| O=C(N[C@H]1CC[C@H](c2ccc(O)cc2)CC1)C1Cc2ccccc2CN1 (stereo partly drawn) | 18 µg/mL (≈ 51.4 µM) |

target: hERG (KCNH2) (Homo sapiens, UniProt Q12809); assay: Inhibition of HERG current at 30 uM; conditions: not given
Sequence (Q12809 whole entry): as above

| Structure (SMILES) | inhibition at 30 µM |
| --- | --- |
| O=C(CCc1ccccc1)N[C@H]1CC[C@](O)(c2ccc(O)cn2)CC1 | 9% |

— ChEMBL document CHEMBL1137458, “Discovery of novel and orally active NR2B-selective N-methyl-D-aspartate (NMDA) antagonists, pyridinol derivatives with reduced HERG binding affinity” (Bioorg Med Chem Lett, 2007)
